Measurements reported in patent US10851065B2 (Eisai R&D Management Co., Ltd., priority 2015, dated 2020).

Assays:
[1] = tested on: MCF7-WT cells (MCF7 ER-alpha wildtype); test: In vitro proliferation (viability) assay, CellTiter-Glo, MCF7-WT cells; type: cell-based; conditions: Homo sapiens; MCF7-WT cells, 6 days, CTG vs day 0; mean ± SD-type spread (n); read-out: GI50 WT
Description: (§1) MCF7 BUS cells (Coser, et al., (2003) PNAS 100(24): 13994-13999) were maintained in Dulbecco's Modified Eagle Medium supplemented with 10% FBS, 4 mM L-glutamine and 1× non-essential amino acids. Lenti-X 293T cells (Clontech, Cat #632180) were routinely cultured in Dulbecco's Modified Eagle Medium supplemented with 10% FBS.
(§2) The QuikChange II XL Site-Directed Mutagenesis Kit (Agilent Technologies, Cat #200523) was used to generate Y537S, Y537C, Y537N and D538G mutations within the ERα exon 8. Wild-type ESR1 cDNA (GeneCopoeia Inc., Cat #GC-A0322, accession no. NM 000125) was used as a template with the following mutagenesis primers (where the underlined nucleotides represent site mutations); Y537S: F-AAGAACGTGGTGCCCCTCTCTGACCTGCTGCTGGAGATG (SEQ ID NO: 1), R-CATCTCCAGCAGCAGGTCAGAGAGGGGCACCACGTTCTT (SEQ ID NO: 2); Y537N: F-AAGAACGTGGTGCCCCTCAATGACCTGCTGCTGGAGATG (SEQ ID NO: 3), R-CATCTCCAGCAGCAGGTCATTGAGGGGCACCACGTTCTT (SEQ ID NO: 4); Y537C: F-AAGAACGTGGTGCCCCTCTGTGACCTGCTGCTGGAGATG (SEQ ID NO: 5), R-CATCTCCAGCAGCAGGTCACAGAGGGGCACCACGTTCTT (SEQ ID NO: 6); D538G: F-AACGTGGTGCCCCTCTATGGCCTGCTGCTGGAGATGCTG (SEQ ID NO: 7), R-CAGCATCTCCAGCAGCAGGCCATAGAGGGGCACCACGTT (SEQ ID NO: 8). WT and mutant ESR1 cDNAs were cloned into the designation lentiviral vector pLenti6.3/V5-Dest (Invitrogen, Cat #V533-06). To make lentivirus, DNAs (WT and mutant ESR1) were co-transfected with packaging plasmids into Lenti-X 293T cells using TransIT (Mirus, Cat #MIR 2700). 48 h post-transfection, virus containing media was filtered and added to MCF7 cells in the presence of 8 µg/ml polybrene overnight. Two days following infection, cells were placed under selection with 10 μg/ml blasticidin for 2 weeks for stable expression.
(§3) MCF7-WT and -Y537S cells were seeded at 1500 cells/well in black-walled 96-well plates (assay plates, Costar, Cat #3904). In parallel, cells were also seeded in a separate 96-well plate (8 wells/cell line, control plate) for which a CTG (CellTiter-Glo® Luminescent Viability Assay, Promega, Cat #G7572) was measured the following day (day 0 reading). The day 0 reading was used for the GI50 calculation at the termination of the experiment. The day following seeding, compounds were added to assay plates. Briefly, a 1:4 serial dilution was prepared in DMSO at 200× final concentration for a total of 10 concentrations (9 dilutions containing compound and one is DMSO only). Serially diluted compounds were pipetted into medium to prepare a compound-medium mix at 10× final concentration. 10 μl of compound-medium mix was added to MCF7-WT and -Y537S cells at 3 wells/concentration (triplicate for each concentration). On day 3, media/compound was removed and replaced with fresh media/compound as described above. On day 6, CTG was measured and compared to day 0 readings from control plate to assess GI50.

[2] = tested on: MCF7-Y537S cells (MCF7 ER-alpha Y537S mutant); test: In vitro proliferation (viability) assay, CellTiter-Glo, MCF7-Y537S cells; type: cell-based; conditions: Homo sapiens; MCF7-Y537S cells, 6 days, CTG vs day 0; mean ± SD-type spread (n); read-out: GI50 MUT (Y537S)
Description: as §1, §2, §3

Row | SMILES | GI50 [1] [nM] | GI50 [2] [nM]
1 | O=C(/C=C/CNCCOc1ccc(/C(=C(\c2ccccc2)C2CCC2)c2ccc3[nH]nc(F)c3c2)cc1)N1CCC1 [Compound 40, (E)-1-(azetidin-1-yl)-4-((2-(4-((E)-2-cyclobutyl-1-(3-fluoro-1H-indazol-5-yl)-2-phenylvinyl)phenoxy)ethyl)amino)but-2-en-1-one] | 7.52 ± 4.52 | 94.5 ± 20.8
2 | CC/C(=C(\c1ccc2[nH]nc(F)c2c1)c1ccc(OCCNC/C=C/C(=O)N(C)C)cn1)c1ccccc1 [Compound 93, (E)-4-((2-((6-((Z)-1-(3-fluoro-1H-indazol-5-yl)-2-phenylbut-1-en-1-yl)pyridin-3-yl)oxy)ethyl)amino)-N,N-dimethylbut-2-enamide] | 12.4 | 369
3 | CC/C(=C(/c1ccc(OCCNC/C=C/C(=O)N(C)C)cc1)c1ccc2[nH]nc(F)c2c1)c1c(F)cccc1F [Compound 50, (E)-4-((2-(4-((E)-2-(2,6-difluorophenyl)-1-(3-fluoro-1H-indazol-5-yl)but-1-en-1-yl)phenoxy)ethyl)amino)-N,N-dimethylbut-2-enamide] | 2.46 | 67.5
4 | CC/C(=C(/c1ccc(OCCNC/C=C/C(=O)N(C)C)nc1)c1ccc2[nH]nc(F)c2c1)c1ccccc1 [Compound 68, (E)-4-((2-((5-((Z)-1-(3-fluoro-1H-indazol-5-yl)-2-phenylbut-1-en-1-yl)pyridin-2-yl)oxy)ethyl)amino)-N,N-dimethylbut-2-enamide] | 2.8 | 30.3
5 | CN(C)C(=O)/C=C/CNCCOc1ccc(/C(=C(/CC(F)(F)F)c2ccc(F)cc2Cl)c2ccc3[nH]nc(F)c3c2)cn1 [Compound 59, (E)-4-((2-((5-((Z)-2-(2-chloro-4-fluorophenyl)-4,4,4-trifluoro-1-(3-fluoro-1H-indazol-5-yl)but-1-en-1-yl)pyridin-2-yl)oxy)ethyl)amino)-N,N-dimethylbut-2-enamide] | 0.33 ± 0.18 | 15.2 ± 3.7
6 | O=C(/C=C/CNCCOc1ccc(/C(=C(\c2ccccc2)C2CCC2)c2ccc3[nH]ncc3c2)cc1)N1CCC1 [Compound 39, (E)-1-(azetidin-1-yl)-4-((2-(4-((E)-2-cyclobutyl-1-(1H-indazol-5-yl)-2-phenylvinyl)phenoxy)ethyl)amino)but-2-en-1-one] | 1.79 ± 0.47 | 31.8 ± 4.85
7 | CN(C)C(=O)/C=C/CNCCOc1ccc(/C(=C(\c2ccccc2)C2CCC2)c2ccc3[nH]nc(F)c3c2)cc1 [Compound 14, (E)-4-((2-(4-((E)-2-cyclobutyl-1-(3-fluoro-1H-indazol-5-yl)-2-phenylvinyl)phenoxy)ethyl)amino)-N,N-dimethylbut-2-enamide 2,2,2-trifluoro acetate] | 2.46 ± 1.43 | 30.7 ± 4.02
8 | CN(C)C(=O)/C=C/CNCCOc1ccc(/C(=C(/CC(F)(F)F)c2ccncc2F)c2ccc3[nH]nc(F)c3c2)cc1 [Compound 61, (E)-N,N-dimethyl-4-((2-(4-((E)-4,4,4-trifluoro-1-(3-fluoro-1H-indazol-5-yl)-2-(3-fluoropyridin-4-yl)but-1-en-1-yl)phenoxy)ethyl)amino)but-2-enamide] | 0.3 ± 0.1 | 4 ± 1.5
9 | CC/C(=C(\c1ccc2[nH]nc(F)c2c1)c1ccc(OCCNC/C=C/C(=O)N(C)C)cc1F)c1ccccc1 [Compound 64, (E)-4-((2-(3-fluoro-4-((Z)-1-(3-fluoro-1H-indazol-5-yl)-2-phenylbut-1-en-1-yl)phenoxy)ethyl)amino)-N,N-dimethylbut-2-enamide] | 3.1 | 58.3

Other lines, results leading:

Row | GI50 [1] [nM] | GI50 [2] [nM] | SMILES
10 | 0.4 | 13.4 | CC/C(=C(/c1ccc(OCC(C)(C)NC/C=C/C(=O)N(C)C)cc1)c1ccc2[nH]ncc2c1)c1ccccc1 [Compound 98, (E)-4-((1-(4-((E)-1-(1H-indazol-5-yl)-2-phenylbut-1-en-1-yl)phenoxy)-2-methylpropan-2-yl)amino)-N,N-dimethylbut-2-enamide]
11 | 1.8 ± 0.5 | 28.8 ± 14 | CC/C(=C(/c1ccc(OCCNC/C=C/C(=O)N(C)C)cc1)c1ccc2[nH]ncc2c1)c1ccc(F)cc1Cl [Compound 74, (E)-4-((2-(4-((E)-2-(2-chloro-4-fluorophenyl)-1-(1H-indazol-5-yl)but-1-en-1-yl)phenoxy)ethyl)amino)-N,N-dimethylbut-2-enamide]
12 | 2 | 27.2 | CC/C(=C(/c1ccc(OC(C)C(C)NC/C=C/C(=O)N(C)C)cc1)c1ccc2[nH]ncc2c1)c1ccccc1 (stereo not drawn) [Compound 96, (E)-4-((3-(4-((E)-1-(1H-indazol-5-yl)-2-phenylbut-1-en-1-yl)phenoxy)butan-2-yl)amino)-N,N-dimethylbut-2-enamide]
13 | 2.8 | 65.7 | CC/C(=C(/c1ccc(OCCNC/C=C/C(=O)N(C)C)cc1)c1ccc2[nH]ncc2n1)c1ccccc1 [Compound 63, (E)-N,N-dimethyl-4-((2-(4-((E)-2-phenyl-1-(1H-pyrazolo[4,3-b]pyridin-5-yl)but-1-en-1-yl)phenoxy)ethyl)amino)but-2-enamide]
14 | 26.6 ± 21.8 | 154 ± 51.7 | CC/C(=C(/c1ccc(OCCNC/C(C)=C/C(=O)N(C)C)cc1)c1ccc2[nH]ncc2c1)c1ccccc1 [Compound 21, (E)-4-((2-(4-((E)-1-(1H-indazol-5-yl)-2-phenylbut-1-en-1-yl)phenoxy)ethyl)amino)-N,N,3-trimethylbut-2-enamide]
15 | 2.18 | 25.2 | CCCN(C)C(=O)/C=C/CNCCOc1ccc(/C(=C(/CC)c2ccccc2)c2ccc3[nH]ncc3c2)cc1 [Compound 17, (E)-4-((2-(4-((E)-1-(1H-indazol-5-yl)-2-phenylbut-1-en-1-yl)phenoxy)ethyl)amino)-N-methyl-N-propylbut-2-enamide]
16 | 2.7 | 81.4 | CC/C(=C(/c1ccc(OC(C)(C)CNC/C=C/C(=O)N(C)C)cc1)c1ccc2[nH]ncc2c1)c1ccccc1 [Compound 99, (E)-4-((2-(4-((E)-1-(1H-indazol-5-yl)-2-phenylbut-1-en-1-yl)phenoxy)-2-methylpropyl)amino)-N,N-dimethylbut-2-enamide]
17 | 3.37 | 58.7 | CC/C(=C(/c1ccc(OCCNC/C=C/C(=O)N(C)C)cc1)c1ccc2[nH]ncc2c1)c1ccc(C(C)C)cc1 [Compound 29, (E)-4-((2-(4-((E)-1-(1H-indazol-5-yl)-2-(4-isopropylphenyl)but-1-en-1-yl)phenoxy)ethyl)amino)-N,N-dimethylbut-2-enamide]
18 | 2.08 ± 1.57 | 20 ± 13.7 | CN(C)C(=O)/C=C/CNCCOc1ccc(/C(=C(\c2ccccc2)C2CCC2)c2ccc3[nH]ncc3c2)cc1 [Compound 13, (E)-4-((2-(4-((E)-2-cyclobutyl-1-(1H-indazol-5-yl)-2-phenylvinyl)phenoxy)ethyl)amino)-N,N-dimethylbut-2-enamide]
19 | 2.15 ± 0.15 | 34.9 ± 1.5 | CN(C)C(=O)/C=C/CNCCOc1ccc(/C(=C(/CCF)c2ccccc2)c2ccc3[nH]nc(F)c3c2)cc1 [Compound 84]
20 | 6.22 ± 0.58 | 47.8 ± 15.6 | CC/C(=C(/c1ccc(OCCNC/C=C/C(=O)N(C)C)cc1)c1ccc2[nH]ncc2c1)c1ccccc1CC [Compound 35, (E)-4-((2-(4-((E)-2-(2-ethylphenyl)-1-(1H-indazol-5-yl)but-1-en-1-yl)phenoxy)ethyl)amino)-N,N-dimethylbut-2-enamide]
21 | 0.76 | 14 | CC/C(=C(/c1ccc(OCCNC/C=C/C(=O)N2CCCC2)cc1)c1ccc2[nH]ncc2c1)c1ccccc1 [Compound 11, (E)-4-((2-(4-((E)-1-(1H-indazol-5-yl)-2-phenylbut-1-en-1-yl)phenoxy)ethyl)amino)-1-(pyrrolidin-1-yl)but-2-en-1-one]
